Data as given in ChEMBL document CHEMBL1201862, “PubChem BioAssay data set” (2004).
Activity calls are given as the source filed them.

Assays:
[1] = target: Glycogen synthase kinase-3 alpha (Homo sapiens, UniProt P49840); assay: Inhibition of Human GSK-3 alpha Activity Measured in Biochemical System Using Microfluidics - 2063-06_Inhibitor_Dose_DryPowder_Activity_Set2. [Related pubchem assays (depositor defined):AID2709]
[2] = target: Cyclin-dependent kinase 5/CDK5 activator 1 (Homo sapiens, UniProt Q00535); assay: CDK5-p25 kinase inhibitors, specificity check, dose response, selectivity assay for GSK-3 alpha inhibitor project, biochemical, microfluidic mobility shift, dry powder (AID 588430)
[3] = target: Glycogen synthase kinase-3 beta (Homo sapiens, UniProt P49841); assay: Inhibition of Human GSK-3 beta Activity Measured in Biochemical System Using Microfluidics - 2063-05_Inhibitor_Dose_DryPowder_Activity_Set2. [Related pubchem assays (depositor defined):AID2709]
[4] = Luminescence Cell-Based Dose Confirmation HTS to Identify Activators of 5'UTR Stem-Loop Driven Alpha-Synuclein mRNA Translation in H4 Neuroglioblastoma Cells. [Related pubchem assays: 1829 (Project Summary), 1814 (Primary HTS)]; format: functional
[5] = test system: H4; assay: Luminescence Cell-Based Dose Response HTS to Identify Activators of 5'UTR Stem-Loop Driven Prion Protein mRNA Translation in H4 Neuroglioblastoma Cells. [Related pubchem assays: 1829 (Project Summary), 1814 (Primary HTS)]; format: functional; conditions: Homo sapiens
[6] = Luminescence Cell-Based Dose Response to Identify Activators of 5'UTR Stem-Loop Driven Prion Protein mRNA Translation in H4-C Neuroglioblastoma Cells. [Related pubchem assays: 1829 (Project Summary), 1814 (Primary HTS)]; format: functional
[7] = Luminescence Cell-Based Dose Confirmation to Identify Activators of 5'UTR Stem-Loop Driven Alpha-Synuclein mRNA Translation in H4 Neuroglioblastoma Cells. [Related pubchem assays: 1829 (Project Summary), 1814 (Primary HTS)]; format: functional
[8] = Luminescence Cell-Based Dose Response HTS to Identify Activators of Luciferase Translation or Activity in H4 […] Cells. [Related pubchem assays: 1829 (Project Summary), 1814 (Primary HTS)]; format: functional
[9] = Luminescence Cell-Based Dose Response to Identify Activators of Luciferase Translation or Activity in H4-C Neuroglioblastoma Cells. [Related pubchem assays: 1829 (Project Summary), 1814 (Primary HTS)]; format: functional
[10] = target: T1, Insulin-degrading enzyme (Homo sapiens, UniProt P14735); assay: activators of recombinant IDE enzyme, dose response, counter-screen for IDE activator project, biochemical, fluorescence polarization (AID 588681)
T1 sequence (P14735 whole entry): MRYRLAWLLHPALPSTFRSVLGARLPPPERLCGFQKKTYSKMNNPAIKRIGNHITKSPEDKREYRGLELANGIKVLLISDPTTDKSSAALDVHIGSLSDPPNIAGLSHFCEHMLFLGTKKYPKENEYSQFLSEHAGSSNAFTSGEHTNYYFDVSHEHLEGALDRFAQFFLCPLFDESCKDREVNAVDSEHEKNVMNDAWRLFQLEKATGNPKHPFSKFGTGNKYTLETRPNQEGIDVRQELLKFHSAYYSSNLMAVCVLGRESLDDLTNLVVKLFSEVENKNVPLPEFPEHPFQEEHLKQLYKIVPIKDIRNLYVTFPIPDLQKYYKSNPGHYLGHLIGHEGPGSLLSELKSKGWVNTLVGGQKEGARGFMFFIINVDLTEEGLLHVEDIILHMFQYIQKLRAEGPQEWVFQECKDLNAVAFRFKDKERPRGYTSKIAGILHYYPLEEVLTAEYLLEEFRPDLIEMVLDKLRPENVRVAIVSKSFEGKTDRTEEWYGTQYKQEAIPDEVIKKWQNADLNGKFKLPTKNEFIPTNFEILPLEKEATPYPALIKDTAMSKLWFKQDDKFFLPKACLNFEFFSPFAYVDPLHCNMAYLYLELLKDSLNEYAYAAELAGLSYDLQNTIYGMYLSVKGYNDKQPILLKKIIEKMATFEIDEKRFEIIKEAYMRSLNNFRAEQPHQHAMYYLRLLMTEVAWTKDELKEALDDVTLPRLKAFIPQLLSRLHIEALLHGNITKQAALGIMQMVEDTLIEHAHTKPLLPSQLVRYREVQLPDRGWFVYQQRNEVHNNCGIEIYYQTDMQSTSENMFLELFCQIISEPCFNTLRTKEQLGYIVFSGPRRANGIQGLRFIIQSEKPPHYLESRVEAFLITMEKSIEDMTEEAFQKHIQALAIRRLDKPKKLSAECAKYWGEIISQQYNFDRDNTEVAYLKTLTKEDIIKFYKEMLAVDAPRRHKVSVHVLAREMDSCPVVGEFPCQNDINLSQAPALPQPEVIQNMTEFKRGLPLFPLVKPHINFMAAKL

[11] = target: T1, Insulin-degrading enzyme; assay: activators of endogenous IDE in HEK cells, dose response, cell-based, fluorescence polarization (AID 588439); format: functional
[12] = test system: HEK293; assay: HEK cell cytotoxicity by LDH release, dose response, cytotoxicity control for IDE activator project, fluorescence, HEK cells (AID 588440); format: functional, cell-based; conditions: Homo sapiens;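 note: cytotoxicity by LDH release measuring loss of membrane integrity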
[13] = test system: HEK293; assay: optical interference in Abeta FP readout, dose response, artefact control for IDE activator project, biochemical, fluorescence polarization (AID 588442); format: functional, cell-based; conditions: Homo sapiens
[14] = target: DNA dC->dU-editing enzyme APOBEC-3A (Homo sapiens, UniProt P31941); assay: SAR analysis of small molecule inhibitors of APOBEC3A DNA Deaminase via a fluorescence-based single-stranded DNA deaminase assay.; format: functional; conditions: read-out: IC50_Mean
DNA dC->dU-editing enzyme APOBEC-3A, sequence (P31941 whole entry): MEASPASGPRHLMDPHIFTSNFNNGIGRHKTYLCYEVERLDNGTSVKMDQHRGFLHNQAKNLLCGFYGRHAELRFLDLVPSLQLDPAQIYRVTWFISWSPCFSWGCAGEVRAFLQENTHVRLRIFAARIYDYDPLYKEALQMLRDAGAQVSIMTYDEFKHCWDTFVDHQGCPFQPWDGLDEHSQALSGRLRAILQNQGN

[15] = target: Cytochrome P450 2C19 (Homo sapiens, UniProt P33261); assay: Cytochrome panel assay with activity outcomes. Panel member name: p450-cyp2c19 Compounds with AC50 equal or less than 10 uM are considered active; format: functional; conditions: read-out: AC50
[16] = target: Cytochrome P450 2C9 (Homo sapiens, UniProt P11712)
[17] = target: DNA dC->dU-editing enzyme APOBEC-3G (Homo sapiens, UniProt Q9HC16); assay: APOBEC3G deaminase inhibitors, SAR follow-up, biochemical, fluorescence, single-stranded DNA substrate (AID 602136); format: functional; conditions: read-out: IC50_Mean
[18] = target: Sphingosine 1-phosphate receptor 4 (Homo sapiens, UniProt O95977); assay: Late-stage fluorescence-based dose-response cell-based counterscreen assay to identify agonists of the Sphingosine 1-Phosphate Receptor 3 (S1P3): Sphingosine 1-Phosphate Receptor 4 (S1P4) agonist assay.; format: functional
[19] = target: Sphingosine 1-phosphate receptor 2 (Homo sapiens, UniProt O95136); assay: Late-stage fluorescence-based dose-response cell-based counterscreen assay to identify agonists of the Sphingosine 1-Phosphate Receptor 3 (S1P3): Sphingosine 1-Phosphate Receptor 2 (S1P2) agonist assay.; format: functional
[20] = target: Rho-associated protein kinase 1 (Homo sapiens, UniProt Q13464); format: functional;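 note: measured within a broad kinome-wide panel profiling many kinases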
Rho-associated protein kinase 1, sequence (Q13464 whole entry): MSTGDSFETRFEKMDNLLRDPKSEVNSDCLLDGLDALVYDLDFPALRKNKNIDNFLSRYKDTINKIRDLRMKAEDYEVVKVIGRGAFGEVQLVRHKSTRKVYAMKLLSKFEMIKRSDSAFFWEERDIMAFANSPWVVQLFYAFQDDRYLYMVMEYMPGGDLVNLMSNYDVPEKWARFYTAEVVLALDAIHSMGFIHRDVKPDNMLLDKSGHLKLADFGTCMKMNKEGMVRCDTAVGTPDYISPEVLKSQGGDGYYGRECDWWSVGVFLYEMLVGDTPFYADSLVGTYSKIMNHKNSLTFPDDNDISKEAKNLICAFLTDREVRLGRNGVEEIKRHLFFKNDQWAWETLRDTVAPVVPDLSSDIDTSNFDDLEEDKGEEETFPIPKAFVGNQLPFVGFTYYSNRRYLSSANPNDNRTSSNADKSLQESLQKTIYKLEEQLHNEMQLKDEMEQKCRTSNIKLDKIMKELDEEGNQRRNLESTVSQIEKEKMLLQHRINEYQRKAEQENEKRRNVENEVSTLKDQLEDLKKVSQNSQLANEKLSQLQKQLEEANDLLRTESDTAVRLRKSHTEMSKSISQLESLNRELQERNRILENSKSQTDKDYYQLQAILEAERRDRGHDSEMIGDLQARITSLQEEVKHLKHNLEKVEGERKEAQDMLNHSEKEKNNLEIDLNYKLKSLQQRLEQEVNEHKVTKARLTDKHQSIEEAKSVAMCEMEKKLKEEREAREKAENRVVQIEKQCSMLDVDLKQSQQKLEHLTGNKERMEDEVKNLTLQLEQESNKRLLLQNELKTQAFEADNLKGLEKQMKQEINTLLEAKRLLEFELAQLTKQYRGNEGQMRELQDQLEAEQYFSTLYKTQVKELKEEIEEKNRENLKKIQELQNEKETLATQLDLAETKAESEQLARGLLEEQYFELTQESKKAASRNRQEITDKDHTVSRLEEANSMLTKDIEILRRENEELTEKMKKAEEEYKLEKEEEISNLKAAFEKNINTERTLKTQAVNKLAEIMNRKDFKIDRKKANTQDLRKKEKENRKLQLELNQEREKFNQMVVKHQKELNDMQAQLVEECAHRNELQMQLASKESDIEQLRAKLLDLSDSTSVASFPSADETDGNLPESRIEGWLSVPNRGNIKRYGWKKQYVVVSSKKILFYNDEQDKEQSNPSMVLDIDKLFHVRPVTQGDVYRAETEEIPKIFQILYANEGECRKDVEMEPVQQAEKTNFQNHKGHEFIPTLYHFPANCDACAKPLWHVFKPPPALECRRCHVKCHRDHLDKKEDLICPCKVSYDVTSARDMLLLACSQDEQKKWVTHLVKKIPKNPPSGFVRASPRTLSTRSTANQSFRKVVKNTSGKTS

[21] = target: High affinity nerve growth factor receptor (Homo sapiens, UniProt P04629); format: functional;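 note: NTRK1 tested as one member of a kinome-wide profiling panel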
High affinity nerve growth factor receptor, sequence (P04629 whole entry): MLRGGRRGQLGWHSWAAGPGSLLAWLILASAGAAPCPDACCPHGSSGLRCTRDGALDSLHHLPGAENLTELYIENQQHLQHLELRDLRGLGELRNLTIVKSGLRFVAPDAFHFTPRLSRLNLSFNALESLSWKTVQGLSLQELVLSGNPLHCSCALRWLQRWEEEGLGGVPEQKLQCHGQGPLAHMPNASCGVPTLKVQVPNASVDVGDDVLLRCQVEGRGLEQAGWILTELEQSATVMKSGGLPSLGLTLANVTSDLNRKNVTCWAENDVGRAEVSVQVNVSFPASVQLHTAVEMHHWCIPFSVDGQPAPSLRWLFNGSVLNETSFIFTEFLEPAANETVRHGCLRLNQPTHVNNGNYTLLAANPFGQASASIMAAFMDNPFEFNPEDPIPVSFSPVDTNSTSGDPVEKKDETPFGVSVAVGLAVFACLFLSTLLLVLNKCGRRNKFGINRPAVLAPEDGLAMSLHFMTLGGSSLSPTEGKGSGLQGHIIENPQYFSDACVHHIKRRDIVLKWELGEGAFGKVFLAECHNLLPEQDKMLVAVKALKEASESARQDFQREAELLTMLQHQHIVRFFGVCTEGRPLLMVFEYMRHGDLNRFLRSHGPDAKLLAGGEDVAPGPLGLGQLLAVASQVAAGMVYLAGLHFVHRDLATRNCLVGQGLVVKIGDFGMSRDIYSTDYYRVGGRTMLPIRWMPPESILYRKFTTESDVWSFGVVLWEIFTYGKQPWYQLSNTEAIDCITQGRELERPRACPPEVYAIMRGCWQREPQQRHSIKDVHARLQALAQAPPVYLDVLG

[22] = target: Calcium/calmodulin-dependent protein kinase type II subunit alpha (Homo sapiens, UniProt Q9UQM7); assay: Navigating the Kinome. Panel member name: CAMK2A; format: functional
[23] = target: Serine/threonine-protein kinase TAO1 (Homo sapiens, UniProt Q7L7X3); format: functional
[24] = target: Aurora kinase B (Homo sapiens, UniProt Q96GD4); format: functional
[25] = target: BDNF/NT-3 growth factors receptor (Homo sapiens, UniProt Q16620); format: functional;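 note: NTRK2 measured as one member of a broad kinome-wide kinase profiling panel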
[26] = target: Dual specificity protein kinase CLK4 (Homo sapiens, UniProt Q9HAZ1); format: functional
[27] = target: Hepatocyte growth factor receptor (Homo sapiens, UniProt P08581); format: functional;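 note: kinase panel profiling across the kinome, with MET as the panel member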
[28] = target: ALK tyrosine kinase receptor (Homo sapiens, UniProt Q9UM73); format: functional;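 note: ALK tested as one member of a kinase panel screen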
ALK tyrosine kinase receptor, sequence (Q9UM73 whole entry): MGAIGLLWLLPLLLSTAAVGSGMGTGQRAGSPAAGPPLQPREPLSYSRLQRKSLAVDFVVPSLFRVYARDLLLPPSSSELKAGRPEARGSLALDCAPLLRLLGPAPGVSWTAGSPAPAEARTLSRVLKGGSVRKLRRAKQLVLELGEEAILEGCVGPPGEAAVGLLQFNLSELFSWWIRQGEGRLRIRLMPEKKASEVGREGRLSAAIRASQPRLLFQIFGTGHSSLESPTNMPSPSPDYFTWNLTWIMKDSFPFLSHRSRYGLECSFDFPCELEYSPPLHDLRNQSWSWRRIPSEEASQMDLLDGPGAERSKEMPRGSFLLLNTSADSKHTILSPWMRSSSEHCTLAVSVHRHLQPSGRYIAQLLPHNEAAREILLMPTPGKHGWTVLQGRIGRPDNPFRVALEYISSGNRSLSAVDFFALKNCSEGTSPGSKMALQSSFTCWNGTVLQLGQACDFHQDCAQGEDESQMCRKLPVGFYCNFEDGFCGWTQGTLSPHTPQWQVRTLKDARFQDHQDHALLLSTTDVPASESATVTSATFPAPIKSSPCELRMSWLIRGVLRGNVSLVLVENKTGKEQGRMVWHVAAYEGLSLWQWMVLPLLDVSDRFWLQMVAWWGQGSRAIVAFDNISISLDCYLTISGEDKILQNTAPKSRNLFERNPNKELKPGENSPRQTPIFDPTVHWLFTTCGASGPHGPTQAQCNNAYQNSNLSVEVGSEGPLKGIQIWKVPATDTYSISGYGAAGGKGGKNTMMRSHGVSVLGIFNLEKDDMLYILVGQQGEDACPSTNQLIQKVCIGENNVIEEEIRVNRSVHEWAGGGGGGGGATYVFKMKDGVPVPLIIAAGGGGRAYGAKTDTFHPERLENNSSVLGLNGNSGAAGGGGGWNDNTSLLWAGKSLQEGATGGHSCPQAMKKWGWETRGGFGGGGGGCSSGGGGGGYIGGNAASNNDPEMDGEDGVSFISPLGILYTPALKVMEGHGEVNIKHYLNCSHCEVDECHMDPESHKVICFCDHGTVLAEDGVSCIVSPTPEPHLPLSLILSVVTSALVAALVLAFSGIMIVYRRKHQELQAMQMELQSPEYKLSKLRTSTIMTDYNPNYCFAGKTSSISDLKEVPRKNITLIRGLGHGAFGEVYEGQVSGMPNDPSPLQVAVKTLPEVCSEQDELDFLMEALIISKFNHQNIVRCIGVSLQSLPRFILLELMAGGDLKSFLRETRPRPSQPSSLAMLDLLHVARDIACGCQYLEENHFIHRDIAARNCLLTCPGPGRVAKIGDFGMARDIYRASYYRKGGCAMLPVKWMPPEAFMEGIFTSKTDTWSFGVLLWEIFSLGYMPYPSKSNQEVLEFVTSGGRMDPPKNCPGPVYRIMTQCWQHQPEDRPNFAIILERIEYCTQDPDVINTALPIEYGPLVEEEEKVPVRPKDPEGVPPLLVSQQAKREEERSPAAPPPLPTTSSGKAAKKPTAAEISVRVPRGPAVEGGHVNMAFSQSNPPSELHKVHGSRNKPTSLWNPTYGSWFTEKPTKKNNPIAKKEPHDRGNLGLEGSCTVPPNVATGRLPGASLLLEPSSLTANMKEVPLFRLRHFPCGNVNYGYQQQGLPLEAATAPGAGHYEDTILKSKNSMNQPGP

[29] = target: Tyrosine-protein kinase Lck (Homo sapiens, UniProt P06239); format: functional;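 note: lck was assayed as one member of a kinase panel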
[30] = target: Cyclin-dependent kinase 8 (Homo sapiens, UniProt P49336); assay: Navigating the Kinome. Panel member name: CDK8; format: functional
[31] = target: Tyrosine-protein kinase Fyn (Homo sapiens, UniProt P06241); format: functional
[32] = target: Phosphorylase b kinase gamma catalytic chain, liver/testis isoform (Homo sapiens, UniProt P15735); format: functional;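 note: PHKG2 measured as one member of a kinome-wide kinase panel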
[33] = target: Serine/threonine-protein kinase pim-3 (Homo sapiens, UniProt Q86V86); format: functional;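 note: value obtained as one member of a broad kinase panel profiling effort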

Glycogen synthase kinase-3 alpha, sequence (P49840 whole entry): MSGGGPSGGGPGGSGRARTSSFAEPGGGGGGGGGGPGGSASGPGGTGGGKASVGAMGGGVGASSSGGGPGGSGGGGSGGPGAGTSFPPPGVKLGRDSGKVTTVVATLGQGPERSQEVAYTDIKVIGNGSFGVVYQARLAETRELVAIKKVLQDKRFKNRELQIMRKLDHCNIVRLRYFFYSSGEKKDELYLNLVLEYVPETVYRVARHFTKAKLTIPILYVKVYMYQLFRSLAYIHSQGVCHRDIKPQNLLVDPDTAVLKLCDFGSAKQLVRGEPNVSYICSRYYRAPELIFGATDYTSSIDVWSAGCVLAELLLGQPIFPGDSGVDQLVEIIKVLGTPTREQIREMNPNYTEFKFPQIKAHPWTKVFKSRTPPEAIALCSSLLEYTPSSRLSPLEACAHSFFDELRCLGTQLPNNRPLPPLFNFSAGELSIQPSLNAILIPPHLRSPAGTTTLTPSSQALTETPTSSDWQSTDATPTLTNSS

CCNc1nc(N)c(C(=O)c2ccc(Cl)s2)s1
AC50 [1]: < 0.0218 µM (active) | AC50 [2]: 0.516 µM (active) | AC50 [3]: < 0.016 µM (active) | EC50 [4]: 0.233 µM (active) | EC50 [5]: > 120 µM (not active) | EC50 [6]: 1.21 µM (active) | EC50 [7]: 0.238 µM (active) | EC50 [8]: 0.19 µM (active) | EC50 [9]: > 12 µM (not active)

COc1ccc(C2CC(C(F)(F)F)n3nc(C(=O)O)c(Cl)c3N2)cc1OC (stereo not drawn)
EC50 [10]: 50.1 µM (inactive) | EC50 [11]: > 54.7 µM (inactive) | IC50 [12]: > 89.2 µM (inactive) | EC50 [13]: > 54.7 µM (inactive)

CCCCSc1nnc(-c2cc3c(C(F)(F)F)nn(C)c3s2)n1C
IC50 [14]: > 99 µM (inactive) | AC50 [15]: 20 µM (inconclusive) | AC50 [16]: inconclusive | IC50 [17]: 51.6 µM (inactive)

CC1CCCCC1N(C(=O)c1cc(C2CC2)on1)C1CCCCCC1 (stereo not drawn)
EC50 [18]: > 50 µM (inactive) | EC50 [19]: > 50 µM (inactive)

Cc1cc(=O)[nH]nc1-c1ccc(NC(=O)Nc2cccc(Cl)c2)cc1
Ki [20]: 2.51 µM (active) | Ki [21]: > 15.8 µM (inactive) | Ki [22]: > 7.94 µM (inactive) | Ki [23]: > 6.31 µM (inactive) | Ki [24]: 0.631 µM (active) | Ki [25]: 1.58 µM (active) | Ki [26]: 2 µM (active) | Ki [27]: 0.631 µM (active) | Ki [28]: > 6.31 µM (inactive) | Ki [29]: > 6.31 µM (inactive) | Ki [30]: 3.16 µM (active) | Ki [31]: > 6.31 µM (inactive)

CCOC(=O)C1=c2sc(=Cc3cccs3)c(=O)n2C(N)=C(C#N)C1c1cccs1 (stereo not drawn)
Ki [32]: 5.01 µM (active) | Ki [33]: 6.31 µM (active)
